Data published in patent US8202696B2, “Means for use in treating diseases correlated with or caused by non-physiological levels of microtubule-associated PP2Ac” (Max-Planck-Gessellschaft zur Forderung der Wissenschaften …, priority 2002, dated 2012).
Where no end group is shown, it is not given here.

Assays:
Gli3 [1] = test: Localization of GFP-GLI3 in cultured U373MG cells; type: cell-based; conditions: 24 hours after transfection, 100 cells counted
Procedure: COS7-HELA- and U373MG-cells were transfected using PolyFect Transfection Reagent (Qiagen, cat. no. 301107) according to the manufacturer's instructions. Gli3 cDNA was cloned into pEGFP-C1 and pEGFP-N3 vectors (Clontech) respectively. 100 transfected cells per experiment (Gli3-GFP, GFP-Gli3, Gli3-GFP+myc-MID1, GFP-Gli3+myc-MID1, Gli3-GFP+myc-BBox1, GFP-Gli3+myc-BBox1) were counted and analysed for Gli3 localization. Experiments were repeated twice. […] PCMV-Tag3 vector from Stratagene was used for myc-MID1 and myc-BBox1 overexpression.

tau protein = test: Tau-1 and pan-Tau immunofluorescence in transfected postnatal sympathetic neurons; type: cell-based, rat; conditions: compared to non-transfected neurons = 100%, two days after transfection
Procedure: Peripheral sympathetic neurons were obtained from postnatal day 1-3 rats. […] Following mechanical dissociation the cell suspension was filtered through a 40 μm nylon mesh and seeded at 6 SCGs per well into uncoated Falcon dishes for preplating purposes. After 4 hours neurons were transferred into glass floor dishes (Willco Wells B.V., gwst 3522, 3.8 cm^2 area/dish) coated with poly-D-lysine/laminin. Neurons were maintained in RPMI medium containing antibiotics, N2 additive (Invitrogen) and 100 ng/ml nerve growth factor (NGF; Sigma) at 37° C. in a humidified atmosphere with 5% CO2.
Neurons were transfected 2 hours after seeding applying the biolistic approach. This method uses a hand held gun to bombard dissociated neurons at high velocity with micron-size gold particles loaded with DNA. The coating of gold particles with DNA was achieved using a modification of the manufacturer's instructions (Bio-Rad Laboratories). For preparation of 35 cartridges 25 mg gold particles (1.6 μm diameter) were suspended in 50 μl of 0.05 M spermidine. After vortexing and sonication for 5 seconds, 50 μg plasmid DNA dissolved in 50 μl TE buffer was added (for co-transfection experiments, 80 μg were used, i.e., 40 μg Plasmid I+40 μg Plasmid 2). The amount of gold particles and DNA corresponds to a microcarrier loading quantity (MLQ) of about 0.7 (mg/cartridge) and to a DNA loading ratio (DLR) of 2 (μg/mg) for single transfection experiments. DNA, spermidine and gold were then mixed for 5 sec in a variable speed vortexer. At low vortexing speed, 50 μl 1 M CaCl2 was added dropwise to the mixture for association of DNA with the gold particles followed by precipitation for 10 min at room temperature. The supernatant was removed and the pellet rinsed with 800 μl of 100% ethanol. Washing was repeated two times with centrifugation steps at 3000 g between each wash. […]
A fully motorized Zeiss Axiovert 100M microscope equipped for inverted fluorescence was used for visualization of fluorescent neurons. […]

Gli3 [2] = test: Localization of overexpressed GFP-tagged Gli3 in HeLa cells; type: cell-based; conditions: GFP-tagged Gli3-overexpressing HeLa cells
Procedure: 1×10^5 HELA cells per well of a 6-well plate were transfected with Qiagen Polyfect transfection reagent according to the manufacturer's instructions. The ratio of the amount of DNA to the amount of polyfect transfection reagent was 3 μg DNA/10 μl Polyfect. Constructs used for expression in HELA were the following: GFP-GLI3 (aa 18-1549), GLI3-GFP (aa 1-1522), MYC-GLI3 (aa 18-1596), FLAG-GLI3 (aa18-1596), MYC-B-BOX1 (aa 110-167 of the MID1 protein), ALPHA4-V5 (aa 1-339). 24 h after transfection immunofluorescence was performed. GFP-constructs were treated as described in Schweiger et al., 1999. Immunofluorescence with MYC-tagged and FLAG-tagged constructs was done according to Trockenbacher et al., 2001. FLAG-tagged constructs were detected with anti-FLAG-antibody diluted 1:500, the secondary antibody FITC-antimouse was diluted 1:1000. For MYC-tagged constructs anti-MYC-antibody 1:300 and CY3-antirabbit 1:1000 were used. […]
Overexpressed Gli3 is predominantly localized in the nucleus (FIG. 10, top left).

patched gene = test: Patched-specific semiquantitative RT-PCR of HeLa cells; type: cell-based; conditions: compared to mock-transfected cells
Procedure: One of the most important targets of the Gli3 transcription factor is the patched gene. In order to analyse HeLa cells for Gli3 activity after treatment with the different molecules, semiquantitative RT-PCR of cells overexpressing the B-Box1 and the α4 protein was carried out (FIG. 13). HeLa cells have previously been tested for Gli3-, Gli1 (another target of the Gli3 transcription factor) and patched-expression.

In the case of “B-Box1: peptide derived from the MID1 domain that is responsible for α4 binding (amino acids 108-165), expressed from plasmid (ANTMTSAEKVLCQFCDQDPAQDAVKTCVTCEVSYCDECLKATHPNKKPFTGHRLIEPI; cysteine pairing not given here; also: myc tag; UniProt O15344 108-165, looked up, fragment)”, the GFP-GLI3 localization (Gli3 [1]; listed as B-BOX1) is reported as “significant change of GFP-GLI3 from nucleus to cytosol”, the GFP-GLI3 localization (Gli3 [1]; listed as BBox1) is reported as “significant change from the nucleus to the cytosol” and the GFP-GLI3 localization (Gli3 [1]; listed as Bbox1) is reported as “significant Bbox1-dependent change of Gli3 localization”. For the same substance, the “Tau-1 immunoreactivity (dephosphorylated tau)” value (tau protein; listed as B-BOX1) was “significantly increased”, the “Tau-1 immunoreactivity (dephosphorylated tau)” value (tau protein; listed as Bbox1) was “pronounced increase in fluorescence” and the Gli3 localization (Gli3 [2]) was “significant retention of the active form of Gli3 in the cytosol”. The patched message (patched gene) was “significant reduction of the patched message”.
